{"source": "patent US8680147B2", "about": "“Compositions” (DSM IP Assets B.V., priority 2006, dated 2014)", "type_in_all_cases": "cell-based", "key": {"[1]": {"tested_on": "human collagen 1", "experiment": "Gene expression in human chondrocyte cells (SW1353), quantitative real-time PCR", "method": "(§1) The cells were treated with IL-1β, which is one of the natural mediators that induce cartilage breakdown and is detected in substantial amounts in osteoarthritic cartilage tissues and cells derived thereof. Treatment of cells with IL-1β triggers the expression of genes that are involved in catabolic events, such as MMPs. Also, treatment of the cells with IL-1β reduces the collagen expression levels (compared to untreated cells)\n(§2) Chondrocytes (SW1353; purchased from the […] [ATCC]) were grown in cell culture medium according to the instructions from ATCC. For experimental treatments, cells were seeded into 6-well plates and cultured for two days until they reached confluence. Total cellular RNA was extracted from cultured cells and reverse-transcribed as described by Richard et al. Mol. Nutr. Food Res. 49, 431-442, 2005. Expression levels of distinct genes were determined by quantitative real-time PCR as described in Richard et al. Mol. Nutr. Food Res. 49, 431-442, 2005."}, "[2]": {"tested_on": "Aggrecan", "experiment": "Gene expression in human chondrocyte cells (SW1353), quantitative real-time PCR", "method": "as §1, §2"}, "[3]": {"tested_on": "Human MMP-13", "experiment": "Gene expression in human chondrocyte cells (SW1353), quantitative real-time PCR", "method": "as §1, §2"}, "[4]": {"tested_on": "Human MMP-1", "experiment": "Gene expression in human chondrocyte cells (SW1353), quantitative real-time PCR", "method": "as §1, §2"}, "[5]": {"tested_on": "Human collagen II", "experiment": "Gene expression in human chondrocyte cells (SW1353), quantitative real-time PCR", "method": "as §1, §2"}, "[6]": {"tested_on": "Human MMP-3", "experiment": "Gene expression in human chondrocyte cells (SW1353), quantitative real-time PCR", "method": "as §1, §2"}, "[7]": {"tested_on": "psoriasin (S100 calcium-binding protein A7)", "experiment": "Gene expression in cytokine-stimulated keratinocytes, quantitative real time PCR", "settings": "for Psoriasin gene expression (in % of stimulated cells): keratinocytes, cytokine mix 24 hrs", "method": "(§3) Keratinocytes were cultured in standard medium (SFM, invitrogen #1 7005075) until they reached confluence. Culture medium was then changed to assay medium (SFM without epidermal growth factor and pituary extract) and pre-incubated with the test compound for 2 hrs. In order to stimulate the cells, a cytokine mix (see Boniface et al. J. Immunol. 178, 4615-4622, 2007) was added and the cells were cultured for 24 hrs. At the end of the experiment, cells were washed; total RNA was extracted using Trizol reagents (Sigma T9424). The expression levels of specific genes (cytokeratin 10, β-defensin (defensin-β4) and psoriasin (or S100 calcium-binding protein A7) was performed by quantitative real time PCR, using the procedure described in other examples."}, "[8]": {"tested_on": "β-defensin (defensin-β4)", "experiment": "Gene expression in cytokine-stimulated keratinocytes, quantitative real time PCR", "settings": "for β-defensin gene expression (in % of stimulated cells): keratinocytes, cytokine mix 24 hrs", "method": "as §3"}, "[9]": {"settings": "cytokine-stimulated keratinocytes"}}, "data": [{"smiles": "COc1c(C(C)C)cc2c(c1O)[C@@]1(C(=O)O)CCCC(C)(C)[C@@H]1CC2", "note": "[Carnosic acid-12-methyl ether (I), (4aR,10aS)-carnosic acid 12-methyl ether]", "values": [{"measurement": "Effect on expression of human collagen 1 (in words)", "setting": "[1]", "value": "stimulated the expression"}, {"measurement": "Effect on expression of aggrecan (in words)", "setting": "[2]", "value": "stimulated the expression"}, {"measurement": "Effect on expression of MMP-13 (in words)", "setting": "[3]", "value": "drastically reduced the expression"}, {"measurement": "Effect on expression of MMP-1 (in words)", "setting": "[4]", "value": "drastically reduced the expression"}, {"measurement": "Effect on expression of human collagen 11 (in words)", "setting": "[5]", "value": "stimulated the expression"}, {"measurement": "Effect on expression of MMP-3 (in words)", "setting": "[6]", "value": "drastically reduced the expression"}, {"measurement": "Psoriasin gene expression (in % of stimulated cells)", "setting": "[7]; 0.1 μmol/L", "value": "46 % of stimulated cells"}, {"measurement": "Psoriasin gene expression (in % of stimulated cells)", "setting": "[7]; 1.0 μmol/L", "value": "58 % of stimulated cells"}, {"measurement": "Psoriasin gene expression (in % of stimulated cells)", "setting": "[7]; 5.0 μmol/L", "value": "62 % of stimulated cells"}, {"measurement": "Effect on psoriasin expression (in words)", "setting": "[7]; [9]", "value": "dose-dependently reduced the expression"}, {"measurement": "β-defensin gene expression (in % of stimulated cells)", "setting": "[8]; 0.1 μmol/L", "value": "49 % of stimulated cells"}, {"measurement": "β-defensin gene expression (in % of stimulated cells)", "setting": "[8]; 1.0 μmol/L", "value": "47 % of stimulated cells"}, {"measurement": "β-defensin gene expression (in % of stimulated cells)", "setting": "[8]; 5.0 μmol/L", "value": "28 % of stimulated cells"}, {"measurement": "Effect on β-defensin expression (in words)", "setting": "[8]; [9]", "value": "dose-dependently reduced the expression"}]}]}
